In US20040102383A1, “Growth inhibition and eradication of solid tumors using neuroendocrine resetting therapy and photodynamic therapy” (priority 1996, published 2004):

Tests used:
[1] = tested on: EMT-6 cells derived from a murine mammary sarcoma; experiment: EMT-6 implanted tumor mouse model: PDT with EtNBS with or without timed prolactin (Examples 1-2); assay type: in vivo, Balb/c mice
Description: Adult (6-7 wk old) male Balb/c mice were subcutaneously injected with EMT-6 cells derived from a murine mammary sarcoma (1.7×10^6 cells) on the hind quarter and were divided into four groups (n=10 per group) and treated as follows: Group 1 (D+L) received photodynamic therapy at 14 days after tumor inoculation. Photodynamic therapy consisted of subcutaneously injecting a benzophenothiazine photosensitizer (EtNBS, FIG. 7)(7.5 mg/kg of body weight) and 3 hrs later irradiating the tumor with 652 nm light at a power density of 150 mW/cm2 and a total energy of 100 J/cm^2. Group 2 (PRL) received intraperitoneal ovine prolactin (20 mcg/mouse) at 10 hours after light onset starting at 7 days after tumor inoculation and continuing for 14 days. Group 3 (D+L+PRL) received both PDT (as described above) and prolactin (as described above). Group 4 (CON) remained untreated (control). Fourteen days following PDT tumor volume was determined in all animals.
Example 1 was repeated with different PDT power density and energy characteristics (for groups 2 and 3) which better optimize the PDT effect. […] Under these conditions, tumor “cure” (tumor-free for at least 90 days) of 4-8 mm diameter tumors can be achieved in 70-100% of the cases largely dependent upon the tumor size at the time of PDT. However, if intraperitoneal prolactin administration (20 mcg/mouse/day at 10 hours after light onset) is added to PDT treatment (starting from the day of tumor cell inoculation), then the tumor cure rate is 100%.
The typical response observed using PDT alone with the PDT parameters employed are (in sequence): 1) an inflammation of the photoirradiated spot encompassing the tumor within about 30 minutes which increases to a maximum inflammation at about 3-5 hours; 2) inflammation completely subsides in 48-72 hours leaving noticeable tumor which takes 14 days to regress completely. Eschar formation occurs at 24-48 hours.
At 4-7 days the irradiated area has healed completely. This response cannot be obtained with PDT or prolactin alone.

EMT-6 cells [2] = experiment: EMT-6 implanted tumor mouse model: PDT with EtNBS with or without melatonin (Example 5); assay type: in vivo, Balb/c mice
Description: Adult (6-7 wk old) male Balb/c mice are injected subcutaneously with EMT-6 cells (1.7×10^6 cells) on the hind quarter and are divided into four groups (n=10 per group) and are treated as follows: group 1 receives photodynamic therapy (PDT) at 14 days after tumor inoculation. PDT consists of subcutaneously injecting a benzophenothiazine photosensitizer (EtNBS)(7.5 mg/kg of body weight) and 3 hrs later irradiating the tumor with 652 nm light at a power density of 50 mW/cm^2 and a total energy of 100 J/cm^2. Group 2 receives intraperitoneal melatonin (8 mg/kg) at 10 hours after light onset starting at 7 days after tumor inoculation and continuing for 14 days. Group 3 receives both PDT (as described above) and intraperitoneal melatonin (as described above). Group 4 remains untreated (control). Fourteen days following PDT tumor volume is determined in all animals.

EMT-6 cells [3] = experiment: EMT-6 implanted tumor mouse model: PDT with EtNBS with or without bromocriptine and melatonin (Example 6); assay type: in vivo, Balb/c mice
Description: (§1) Adult (6-7 wk old) male Balb/c mice are subcutaneously injected with EMT-6 cells (1.7×10^6 cells) on the hind quarter and are divided into four groups (n=10 per group) and are treated as follows: group 1 receives photodynamic therapy (PDT) at 14 days after tumor inoculation. PDT consists of subcutaneously injecting a benzophenothiazine photosensitizer (EtNBS)(7.5 mg/kg of body weight) and 3 hrs later irradiating the tumor with 652 nm light at a power density of 50 mW/cm^2 and a total energy of 100 J/cm^2. Group 2 receives intraperitoneal melatonin (8 mg/kg) at 10 hours after light onset and intraperitoneal bromocriptine (50 mcg/mouse) at 0 hours after light onset starting at 7 days after tumor inoculation and continuing for 14 days. Group 3 receives both PDT (as described above) and intraperitoneal bromocriptine and intraperitoneal melatonin (as described above). Group 4 remains untreated (control). Fourteen days following PDT tumor volume is determined in all animals.

EMT-6 cells [4] = experiment: EMT-6 implanted tumor mouse model: PDT with EtNBS with or without bromocriptine (Example 4); assay type: in vivo, Balb/c mice; conditions: PDT alone (EtNBS 7.5 mg/kg sc, 652 nm, 50 mW/cm2, 100 J/cm^2)
Description: as §1, with “mW/cm2” for “mW/cm^2”, “receives” for “receives intraperitoneal melatonin (8 mg/kg) at 10 hours after light onset and”, “bromocriptine” for “bromocriptine and intraperitoneal melatonin”

[5] = in vivo; cited from earlier work
immune responses = conditions: timed daily administration within a specific window of time; no effect outside it; cited from earlier work
[6] = tested on: EMT-6 cells derived from a murine mammary sarcoma; experiment: EMT-6 implanted tumor mouse model: PDT with Dye 4-115 with or without timed prolactin (Example 3); assay type: in vivo, Balb/c mice
Description: Adult (6-7 wk old) male Balb/c mice are subcutaneously injected with EMT-6 cells derived from a murine mammary sarcoma (1.7×10^6 cells) on the hind quarter and are divided into four groups (n=10 per group) and are treated as follows: group 1 receives photodynamic therapy (PDT) at 14 days after tumor inoculation. PDT consists of intravenously injecting a benzophenothiazine photosensitizer (Dye 4-115)(2.5 mg/kg of body weight) and 1 hr later irradiating the tumor with a broad wavelength light source (600-700 nm) at a power density of 50 mW/cm^2 and a total energy of 100 J/cm^2. Group 2 receives intraperitoneal ovine prolactin (20 mcg/mouse) at 10 hours after light onset starting at 7 days after tumor inoculation and continuing for 14 days. Group 3 receives both PDT (as described above) and prolactin (as described above). Group 4 remains untreated (control). Fourteen days following PDT tumor volume is determined in all animals.

body fat stores = conditions: cited from earlier work
tumor burden = experiment: Timed prolactin injections in tumor bearing mice; assay type: in vivo; conditions: circadian rhythms synchronized with a defined photoperiod; versus tumor bearing mice without timed prolactin injections
[7] = PDT alone (EtNBS 7.5 mg/kg sc, 652 nm, 50 mW/cm^2, 100 J/cm^2)
[8] = ip prolactin added to EtNBS PDT
[9] = ip prolactin added to Dye 4-115 PDT

CCNc1cc2sc3cc(=[N+](CC)CC)ccc-3nc2c2ccccc12.[Cl-] [EtNBS]
tumor "cure" (tumor-free for at least 90 days) ([1]; PDT alone (EtNBS 7.5 mg/kg sc, 652 nm, 50 mW/cm^2, 180 J), 4-8 mm diameter tumors): 70-100% | onset of inflammation of the photoirradiated spot ([1]; PDT alone (EtNBS)): ≤ 30 min | time for noticeable tumor to regress completely ([1]; PDT alone (EtNBS)): 14 days | time of eschar formation ([1]; PDT alone (EtNBS)): 24 to 48 h | time of maximum inflammation ([1]; PDT alone (EtNBS)): 3 to 5 h | time until inflammation completely subsides ([1]; PDT alone (EtNBS)): 48 to 72 h | tumor volume fourteen days following PDT (EMT-6 cells [2]; [7]): significantly reduced | tumor volume fourteen days following PDT (EMT-6 cells [3]; [7]): significantly reduced | tumor volume fourteen days following PDT (EMT-6 cells [4]): significantly reduced

COc1ccc2[nH]cc(CCNC(C)=O)c2c1 [melatonin]
tumor volume fourteen days following PDT (EMT-6 cells [2]; EtNBS PDT plus ip melatonin): significantly reduced or entirely eradicated | tumor volume fourteen days following PDT (EMT-6 cells [2]; ip melatonin alone, 8 mg/kg at 10 hours after light onset for 14 days): significantly reduced | effect on growth of tumors (EMT-6 cells [2]; mice, melatonin at the time when melatonin levels are peaking in healthy mice): potent inhibitory effect on growth of tumors | tumor volume fourteen days following PDT (EMT-6 cells [3]; EtNBS PDT plus ip bromocriptine and ip melatonin): significantly reduced or entirely eradicated | tumor volume fourteen days following PDT (EMT-6 cells [3]; ip melatonin 8 mg/kg at 10 hours plus ip bromocriptine 50 mcg/mouse at 0 hours after light onset, no PDT): significantly reduced

hematoporphyrin [HPD]
dermal photosensitization due to prolonged retention in the skin [5]: can persist for months

B1: prolactin: hormone; prolactin enhancer, given as intraperitoneal ovine prolactin (protein, UniProt P01240 31-229, looked up)
Prolactin: TPVCPNGPGNCQVSLRDLFDRAVMVSHYIHNLSSEMFNEFDKRYAQGKGFITMALNSCHTSSLPTPEDKEQAQQTHHEVLMSLILGLLRSWNDPLYHLVTEVRGMKGVPDAILSRAIEIEEENKRLLEGMEMIFGQVIPGAKETEPYPVWSGLPSLQTKDEDARHSAFYNLLHCLRRDSSKIDTYLKLLNCRIIYNNNC
effect on immune function (immune responses): immunostimulatory effect | tumor cure rate ([1]; ip prolactin 20 mcg/mouse/day at 10 hours after light onset from day of inoculation, added to EtNBS PDT (50 mW/cm^2, 180 J)): 100% | time at which the irradiated area has healed completely [1, 8]: 4 to 7 days | time to complete tumor eradication [1, 8]: ≤ 24 h | time to severe eschar formation [1, 8]: ≤ 24 h | treated animals exhibiting severe eschar formation [1, 8]: 100% | tumor cure rate ([1]; mouse models, prolactin at the appropriate time interval combined with PDT): ~100% | treated animals exhibiting severe eschar formation ([6]; ip ovine prolactin 20 mcg/mouse at 10 hours after light onset added to Dye 4-115 PDT): 100% | time at which the irradiated area will heal completely [6, 9]: 4 to 7 days | time to complete tumor eradication [6, 9]: ≤ 24 h | time to severe eschar formation [6, 9]: ≤ 24 h | increase in body fat levels (body fat stores; prolactin injections at midday of a 16-hour daily photoperiod): 3 fold | reduction of fat stores (body fat stores; prolactin injections given early in the photoperiod): 50% | tumor burden (tumor burden): decreased tumor burden
